Measured values published in patent US11339177B2, “Heteroaryl compounds as inhibitors of necrosis, composition and method using the same” (ACCRO BIOSCIENCE INC., priority 2017, dated 2022).
Where a name gives a salt, the structure may show the parent alone.

Assays:
Assay type in all cases: cell-based
[1] = test system: HT29 cells; assay: Necroptosis assay in HT29 cells (TNF-α, Smac mimetic, z-VAD; cell viability); details: Homo sapiens, HT-29; inhibition of necrosis in HT29 cells, compound at 50 nM
[2] = test system: HT29 cells; assay: as above; details: Homo sapiens, HT-29; TNF-α (40 ng/mL), Smacmimetic (100 nM), z-VAD (20 μM), 48 hours
Experimental: Human colon cancer HT29 cells were used in a necroptosis assay. For this assay, HT29 cells were added to 96-well plates and then were pre-treated with 10 μM of the test compound for one hour. Then the cells were treated with TNF-α (40 ng/mL), Smacmimetic (100 nM) and z-VAD (20 μM) for 48 hours, and the viability of cells was quantified. DMSO pretreatment group was used as negative controls, Nec-1 pretreatment group was used as positive controls.
In Table 2, (1) “ND” indicates “not detected;” (2) Explanation for inhibition %: Taking Compound B14 as an example, its inhibition % was 30% (50 nM). It means that the when Compound B14 at a concentration of 50 nM was used in the HT29 Cell Assay, the necrosis of cells were inhibited at 30%.

[3] = test system: L929 cells; assay: Necroptosis assay in L929 cells (TNF-α, z-VAD; cell viability by ATP levels); details: Mus musculus, TNF-α (40 ng/mL), z-VAD (20 μM), 48 hours
Experimental: […] Then the cells were treated with TNF-α (40 ng/mL) and z-VAD (20 μM) for 48 hours, and the viability of cells was quantified by detecting adenosine triphosphate (ATP) levels. DMSO pretreatment group was used as negative controls, Nec-1 pretreatment group was used as positive controls.

Row | SMILES | inhibition at 0.05 µM [1] [%] | IC50 [2] [nM] | IC50 [3] [nM]
1 | CC(=O)Nc1cn2cc(-c3cnc4c(c3)N(C(=O)OC3CCOCC3)CCO4)ccc2n1 [Compound B18] | 10 |  | 
2 | CNC(=O)Nc1nc2ccc(-c3cnc4c(c3)N(C(=O)OC3CCOCC3)CC4)cc2s1 [Compound B60, Tetrahydro-2H-pyran-4-yl6-(2-(3-methylureido)benzo[d]thiazol-6-yl)-2,3-dihydro-1H-pyrrolo[3,2-b]pyridine-1-carboxylate] |  | 1.3 | 2.8
3 | CC(=O)Nc1nc2ccc(-c3cnc4c(c3)N(C(=O)OC3CCCCC3)C[C@@H](C)O4)cc2s1 [Compound B37, Cyclohexyl-(R)-7-(2-acetamidobenzo[d]thiazol-6-yl)-3-methyl-2,3-dihydro-1H-pyrido[2,3-b][1,4]oxazine-1-carboxylate] |  | 32 | 30
4 | CC(=O)Nc1nc2ccc(-c3cnc4c(c3)N(C(=O)OC3CCCCC3)C[C@H](C)O4)cc2s1 [Compound B38] |  | 3500 | 15
5 | Nc1cn2nc(-c3cnc4c(c3)N(C(=O)OC3CCOCC3)CCO4)ccc2n1 [Compound B23] | 10 | 147 | 11.5
6 | CC(=O)Nc1nc2ccc(-c3cnc4c(c3)N(C(=O)OC(C)C3CC3)CCO4)cc2s1 (stereo not shown) [Compound B24] |  | 18 | 5
7 | O=C(Nc1cn2cc(-c3cnc4c(c3)N(C(=O)OC3CCOCC3)CCO4)ccc2n1)C1CC1 [Compound B19] |  | 20 | 10
8 | O=C(Nc1cn2cc(-c3cnc4c(c3)N(C(=O)OC3CCCCC3)CCO4)ccc2n1)C1CC1 [Compound B9] |  | 0.5 | 0.2
9 | O=C(Nc1nc2ccc(-c3cnc4c(c3)N(C(=O)OC3CCCCC3)CCO4)cc2s1)C1CC1 [Compound B3] |  | 0.5 | 0.59
10 | CC(=O)Nc1cn2nc(-c3cnc4c(c3)N(C(=O)OC3CCOCC3)CC4)ccc2n1 [Compound B57] |  | 600 | 90
11 | CC(=O)Nc1nc2ccc(-c3cnc4c(c3)N(C(=O)OC3CCCCC3)CCO4)cn2n1 [Compound B7] |  | 46 | 20
12 | O=C(Nc1nc2ccc(-c3cnc4c(c3)N(C(=O)OC3CCOCC3)CCO4)nc2s1)C1CC1 [Compound B35] |  | 36 | 1
13 | O=C(Nc1nc2ccc(-c3cnc4c(c3)N(C(=O)OC3CCS(=O)(=O)CC3)CC4)cc2s1)C1CC1 [Compound B69, 1,1-dioxidotetrahydro-2H-thiopyran-4-yl6-(2-(cyclopropanecarboxamido)benzo[d]thiazol-6-yl)-2,3-dihydro-1H-pyrrolo[3,2-b]pyridine-1-carboxylate] |  | 4.8 | 15
14 | O=C(Nc1nc2ccc(-c3cnc4c(c3)N(C(=O)OC3CCC(F)(F)CC3)CC4)cc2s1)C1CC1 [Compound B70] |  | 1.2 | 1.3
15 | O=C(Nc1cn2nc(-c3cnc4c(c3)N(C(=O)OC3CCCCC3)CCO4)ccc2n1)C1CC1 [Compound B13] |  | 1.3 | 0.7
16 | CC(C)(C)OC(=O)Nc1cn2nc(-c3cnc4c(c3)N(C(=O)OC3CCOCC3)CCO4)ccc2n1 [Compound B22] | 25 | 114 | 80
17 | Nc1nc2ccc(-c3cnc4c(c3)N(C(=O)OC3CCCCC3)CCO4)cc2s1 [Compound B1] |  | 11 | 3.6
18 | Nc1cn2nc(-c3cnc4c(c3)N(C(=O)OC3CCCCC3)CCO4)ccc2n1 [Compound B11] |  | 500 | 8.9
19 | O=C(Nc1nc2ccc(-c3cnc4c(c3)N(C(=O)OC3CCOCC3)CCO4)cc2s1)C1CC1 [Compound B16] |  | 4 | 1.5
20 | CC(=O)Nc1cn2nc(-c3cnc4c(c3)N(C(=O)OC3CCOCC3)CCO4)ccc2n1 [Compound B20] | 20 |  | 
21 | CC(=O)Nc1nc2ccc(-c3cnc4c(c3)N(C(=O)OC3CCCOC3)CCO4)cc2s1 (stereo not shown) [Compound B25] |  | 17 | 10
22 | CC(=O)Nc1cn2cc(-c3cnc4c(c3)N(C(=O)OC3CCCCC3)CCO4)ccc2n1 [Compound B8] |  | 1 | 1.5
23 | O=C(Nc1nc2ccc(-c3cnc4c(c3)N(C(=O)CC3CCOCC3)CC4)nc2s1)C1CC1 [Compound B63] |  | 25 | 8.5
24 | CN1CCC(OC(=O)N2CCc3ncc(-c4ccc5nc(NC(=O)C6CC6)sc5c4)cc32)CC1 [Compound B68, 1-methylpiperidin-4-yl-6-(2-(cyclopropanecarboxamido)benzo[d]thiazol-6-yl)-2,3-dihydro-1H-pyrrolo[3,2-b]pyridine-1-carboxylate] |  | 30 | 28.3
25 | CC(=O)Nc1nc2ccc(-c3cnc4c(c3)N(C(=O)OC3CCOCC3)CCO4)cc2s1 [Compound B15] |  | 20 | 8.8
26 | CC(C)OC(=O)N1CCc2ncc(-c3ccc4nc(NC(=O)C5CC5)sc4c3)cc21 [Compound B65] |  | 3.2 | 4.5
27 | O=C(Nc1nc2ccc(-c3cnc4c(c3)N(C(=O)OCC3CC3)CC4)cc2s1)C1CC1 [Compound B66] |  | 0.39 | 0.73
28 | Nc1nc2ccc(-c3cnc4c(c3)N(C(=O)OC3CCOCC3)CCO4)cc2s1 [Compound B14, tetrahydro-2H-pyran-4-yl7-(2-aminobenzo[d]thiazol-6-yl)-2,3-dihydro-1H-pyrido[2,3-b][1,4]oxazine-1-carboxylate hydrochloride] | 30 |  | 12.6
29 | O=C(Nc1cn2nc(-c3cnc4c(c3)N(C(=O)OC3CCOCC3)CCO4)ccc2n1)C1CC1 [Compound B21] |  | 50 | 31
